# Laboratory results from patent US12673954B2 (BRISTOL-MYERS SQUIBB COMPANY, priority 2021, dated 2026).
# Like-named read-outs stand apart in the source and are kept apart here.
# Legend:
# [1] = tested on: IRF pathway, THP1-Dual™ cells; experiment: STING reporter assay in THP1-Dual cells, IRF pathway (Lucia luciferase, QUANTI-Luc); assay type: cell-based, human; conditions: THP1-Dual cells, 10% human plasma, 20 hours, Lucia luciferase, 100% activation = 100 μM cGAMP, read-out: IRF (EC50 μM)
# Source text: (§1) THP1-Dual™ cells were derived from the human THP-1 monocyte cell line by stable integration of two inducible reporter constructs. To this end, THP1-Dual™ cells allow the simultaneous study of the NF-κB pathway, by monitoring the activity of SEAP, and the IRF pathway by assessing the activity of a secreted luciferase (Lucia). Both reporter proteins are readily measurable in the cell culture supernatant when using QUANTI-Blue™, a SEAP detection reagent, and QUANTI-Luc™, a luciferase detection reagent.
# (§2) THP1-Dual™ cells induce the activation of NF-κB in response to STING agonists. They also trigger the IRF pathway upon stimulation with STING agonists, such as cGAMP. Here, the THP-1-Dual cells were used to assess STING specific binders for function on the cellular level.
# (§3) Serial dilutions of compounds in DMSO were added to low volume 384 well plates at 100 nl/well using an ECHO acoustic dispenser (Labcyte, model 550) to achieve final starting concentration of 100 μM in cell suspension. […] One column of the plate was reserved for treatment with cGAMP at 100 μM for 100% activation calculation and one column for no treatment (DMSO only) for baseline activation. Plates were then incubated in 37° C. incubator at 5% CO2 for 20 hours.
# (§4) Plates were read on the Envision (Perkin Elmer) at 620 nm wavelength (OD620). In the luciferase assay, 5 μl of Quantiluc (Invivogen, Rep-qlc2) is added to white 384 well plates seeded with THP1 cells and read at 5 minutes on the Envision (Perkin Elmer) using a luminescence protocol (RLU). 100% activation was determined by value (RLU) of THP-1 Dual STING cells stimulated with 100 μM cGAMP (Invivogen, cat #TLRL-NACGA23-5).
# [2] = tested on: NF-κB pathway, THP1-Dual™ cells; experiment: STING reporter assay in THP1-Dual cells, NF-κB pathway (SEAP, QUANTI-Blue); assay type: cell-based, human; conditions: THP1-Dual cells, 10% human plasma, 20 hours, SEAP, 100% activation = 100 μM cGAMP, read-out: NFkB (EC50 μM)
# Source text: as §1, §2, §3, §4
Structure (SMILES),"EC50 ([1]; Homo sapiens, THP1-Dual, 20 h) [µM]","EC50 ([2]; Homo sapiens, THP1-Dual, 20 h) [µM]",EC50 [1] [µM],EC50 [2] [µM]
"COC(OC(=O)c1cc(F)cc2cc(CNC(=O)c3cnc4cccnn34)oc12)C(F)(F)F (single isomer, unassigned) [EXAMPLE 313, 2,2,2-Trifluoro-1-methoxyethyl 5-fluoro-2-((imidazo[1,2-b]pyridazine-3-carboxamido)methyl)benzofuran-7-carboxylate]",3.1,3,–,–
"COC(OC(=O)c1cc(F)cc2cc(CNC(=O)c3cnc4cccnn34)oc12)C(F)(F)F (single isomer, unassigned) [EXAMPLE 314, 2,2,2-Trifluoro-1-methoxyethyl 5-fluoro-2-((imidazo[1,2-b]pyridazine-3-carboxamido)methyl)benzofuran-7-carboxylate]",–,–,1.9,1.9
"CC(OC(=O)c1cc(F)cc2cc(CNC(=O)c3cnc4cccnn34)oc12)C(F)(F)F (single isomer, unassigned) [EXAMPLE 315, 1,1,1-Trifluoropropan-2-yl 5-fluoro-2-((imidazo[1,2-b]pyridazine-3-carboxamido)methyl)benzofuran-7-carboxylate]",–,–,2.1,1.9
"CC(OC(=O)c1cc(F)cc2cc(CNC(=O)c3cnc4cccnn34)oc12)C(F)(F)F (single isomer, unassigned) [EXAMPLE 316, 1,1,1-Trifluoropropan-2-yl 5-fluoro-2-((imidazo[1,2-b]pyridazine-3-carboxamido)methyl)benzofuran-7-carboxylate]",–,–,4.8,5.9
"CC(OC(=O)c1cc(F)cc2cc(CNC(=O)c3cnn4cccnc34)oc12)C(F)(F)F (single isomer, unassigned) [EXAMPLE 317, 1,1,1-Trifluoropropan-2-yl 5-fluoro-2-((pyrazolo[1,5-a]pyrimidine-3-carboxamido)methyl)benzofuran-7-carboxylate]",–,–,1.4,1.3
"CC(OC(=O)c1cc(F)cc2cc(CNC(=O)c3cnn4cccnc34)oc12)C(F)(F)F (single isomer, unassigned) [EXAMPLE 318, 1,1,1-Trifluoropropan-2-yl 5-fluoro-2-((pyrazolo[1,5-a]pyrimidine-3-carboxamido)methyl)benzofuran-7-carboxylate]",–,–,4.3,4.5
"COC(OC(=O)c1cc(F)cc2cc(CNC(=O)c3cnn4cccnc34)oc12)C(F)(F)F (single isomer, unassigned) [EXAMPLE 319, 2,2,2-Trifluoro-1-methoxyethyl 5-fluoro-2-((pyrazolo[1,5-a]pyrimidine-3-carboxamido)methyl)benzofuran-7-carboxylate]",2.4,2.5,–,–
"COC(OC(=O)c1cc(F)cc2cc(CNC(=O)c3cnn4cccnc34)oc12)C(F)(F)F (single isomer, unassigned) [EXAMPLE 320, 2,2,2-Trifluoro-1-methoxyethyl 5-fluoro-2-((pyrazolo[1,5-a]pyrimidine-3-carboxamido)methyl)benzofuran-7-carboxylate]",–,–,1.4,1.4
"O=C(OC1CC(F)(F)C1(F)F)c1cc(F)cc2cc(CNC(=O)c3cnn4cccnc34)oc12 (single isomer, unassigned) [EXAMPLE 321, 2,2,3,3-Tetrafluorocyclobutyl 5-fluoro-2-((pyrazolo[1,5-a]pyrimidine-3-carboxamido)methyl)benzofuran-7-carboxylate]",–,–,0.3,0.38
"O=C(OC1CC(F)(F)C1(F)F)c1cc(F)cc2cc(CNC(=O)c3cnn4cccnc34)oc12 (single isomer, unassigned) [EXAMPLE 322, 2,2,3,3-Tetrafluorocyclobutyl 5-fluoro-2-((pyrazolo[1,5-a]pyrimidine-3-carboxamido)methyl)benzofuran-7-carboxylate]",–,–,2.2,3.3
"CCOC(OC(=O)c1cc(F)cc2cc(CNC(=O)c3cnn4cccnc34)oc12)C(F)F (single isomer, unassigned) [EXAMPLE 323, 1-Ethoxy-2,2-difluoroethyl 5-fluoro-2-((pyrazolo[1,5-a]pyrimidine-3-carboxamido)methyl)benzofuran-7-carboxylate]",0.75,–,–,0.7
"CCOC(OC(=O)c1cc(F)cc2cc(CNC(=O)c3cnn4cccnc34)oc12)C(F)F (single isomer, unassigned) [EXAMPLE 324, 1-Ethoxy-2,2-difluoroethyl 5-fluoro-2-((pyrazolo[1,5-a]pyrimidine-3-carboxamido)methyl)benzofuran-7-carboxylate]",–,–,1.5,1.7
"CC(NC(=O)c1cnn2cccnc12)c1cc2cc(F)cc(C(=O)OCC(F)(F)F)c2o1 (single isomer, unassigned) [EXAMPLE 327, 2,2,2-Trifluoroethyl 5-fluoro-2-(1-(pyrazolo[1,5-a]pyrimidine-3-carboxamido)ethyl)benzofuran-7-carboxylate]",–,–,73,79
"CC(NC(=O)c1cnn2cccnc12)c1cc2cc(F)cc(C(=O)OCC(F)(F)F)c2o1 (single isomer, unassigned) [EXAMPLE 328, 2,2,2-Trifluoroethyl 5-fluoro-2-(1-(pyrazolo[1,5-a]pyrimidine-3-carboxamido)ethyl)benzofuran-7-carboxylate]",–,–,1.3,1.5
"CC(OC(=O)c1cc(Cl)cc2cc(CNC(=O)c3cnn4cccnc34)oc12)C(F)(F)F (single isomer, unassigned) [EXAMPLE 329, 1,1,1-Trifluoropropan-2-yl 5-chloro-2-((pyrazolo[1,5-a]pyrimidine-3-carboxamido)methyl)benzofuran-7-carboxylate]",–,–,0.88,0.89
"CC(OC(=O)c1cc(Cl)cc2cc(CNC(=O)c3cnn4cccnc34)oc12)C(F)(F)F (single isomer, unassigned) [EXAMPLE 330, 1,1,1-Trifluoropropan-2-yl 5-chloro-2-((pyrazolo[1,5-a]pyrimidine-3-carboxamido)methyl)benzofuran-7-carboxylate]",–,–,4.7,5.5
"COC(OC(=O)c1cc(Cl)cc2cc(CNC(=O)c3cnn4cccnc34)oc12)C(F)(F)F (single isomer, unassigned) [EXAMPLE 331, 2,2,2-Trifluoro-1-methoxyethyl 5-chloro-2-((pyrazolo[1,5-a]pyrimidine-3-carboxamido)methyl)benzofuran-7-carboxylate]",1.7,1.8,–,–
"COC(OC(=O)c1cc(Cl)cc2cc(CNC(=O)c3cnn4cccnc34)oc12)C(F)(F)F (single isomer, unassigned) [EXAMPLE 332, 2,2,2-Trifluoro-1-methoxyethyl 5-chloro-2-((pyrazolo[1,5-a]pyrimidine-3-carboxamido)methyl)benzofuran-7-carboxylate]",–,–,1.1,1.1
"O=C(OC1CC(c2ccc(F)cc2)C1)c1cc(Cl)cc2cc(CNC(=O)c3cnn4cccnc34)oc12 (single isomer, unassigned) [EXAMPLE 333, 3-(4-Fluorophenyl)cyclobutyl 5-chloro-2-((pyrazolo[1,5-a]pyrimidine-3-carboxamido)methyl)benzofuran-7-carboxylate]",11,12,–,–
"O=C(OC1CC(c2ccc(F)cc2)C1)c1cc(Cl)cc2cc(CNC(=O)c3cnn4cccnc34)oc12 (single isomer, unassigned) [EXAMPLE 334, 3-(4-Fluorophenyl)cyclobutyl 5-chloro-2-((pyrazolo[1,5-a]pyrimidine-3-carboxamido)methyl)benzofuran-7-carboxylate]",–,–,16,23
"CC(CC(F)(F)F)OC(=O)c1cc(Cl)cc2cc(CNC(=O)c3cnn4cccnc34)oc12 (single isomer, unassigned) [EXAMPLE 335, 4,4,4-Trifluorobutan-2-yl 5-chloro-2-((pyrazolo[1,5-a]pyrimidine-3-carboxamido)methyl)benzofuran-7-carboxylate]",3.5,3.5,–,–
"CC(CC(F)(F)F)OC(=O)c1cc(Cl)cc2cc(CNC(=O)c3cnn4cccnc34)oc12 (single isomer, unassigned) [EXAMPLE 336, 4,4,4-Trifluorobutan-2-yl 5-chloro-2-((pyrazolo[1,5-a]pyrimidine-3-carboxamido)methyl)benzofuran-7-carboxylate]",–,–,3.2,2.5
"COC(OC(=O)c1cc(Br)cc2cc(CNC(=O)c3cnn4cccnc34)oc12)C(F)(F)F (single isomer, unassigned) [EXAMPLE 339, 2,2,2-Trifluoro-1-methoxyethyl 5-bromo-2-((pyrazolo[1,5-a]pyrimidine-3-carboxamido)methyl)benzofuran-7-carboxylate]",1.8,1.4,–,–
